According to US6828144B2, “Method of observing vasculogenesis in vitro using cultured allantois” (Wisconsin Alumni Research Foundation, priority 1996, dated 2004):
Where two headings read alike, the source gives them in different places.

System: headfold-stage allantoic explants
Details: for formation / retention of vascular channels in explants: 5% FCS, feeding at 24 hour intervals, by 72 hours
Protocol: At the onset of culture, or at varying times thereafter, known test compounds, such as Vascular Endothelial Growth Factor (VEGF, R & D Systems, Minneapolis, Minn.), are prepared according to the manufacturer's instructions and added to the cultures in concentrations recommended by the manufacturer (e.g., 1-20 ng VEGF/ml culture medium) or, in the case of unknown test compounds, in varying concentrations to determine the one that either inhibits or enhances vasculogenesis.
To test that possibility, recombinant VEGE (1-10 ng/ml culture medium) was added to explants at the start of culture in 5% FOS.
For survival and vascularization, allantoises were mouth-aspirated into a hand-pulled glass microcapillary (K. M. Downs and R. L. Gardner, supra, 1995; K. M. Downs, et al., supra, 1998) and either cultured in suspension as previously described (K. M. Downs, et al., supra, 1998) or placed individually (i) into wells of 24-well tissue-culture plates (Falcon 3047), (ii) onto glass cover slips (12 mm, Fisher) coated for 30 minutes in filtered (0.45 μm, cellulose acetate) poly-D-lysine (1 mg/ml double processed tissue culture water; Sigma) inserted into wells of 24-well tissue-culture plates and rinsed 34 times with sterile water, (iii) into sterile 8-well plastic chamber slides (Lab-Tek, Nunc), or (iv) into 8-well glass chamber slides some of which were coated in poly-D-lysine. Allantoises were cultured in 0.5 ml (24-well tissue-culture dishes or Falcon culture tubes (K. M. Downs and R. L. Gardner, supra, 1995) or 0.4 ml (8-well chamber slides) of culture medium (Dulbecco's modified Eagle's medium (DMEM) containing either equal parts of immediately-centrifuged and heat-inactivated rat serum as previously described (K. M. Downs and R. L. Gardner, supra, 1995) or 5, 10 and 20% heat-inactivated fetal calf serum (Gibco-BRL; frozen and thawed twice before using) for 24-72 hours at 37° C. in 6.2% CO2 in air. For culture longer than 24 hours, allantoises were given completely fresh medium at 24-hour intervals. In some experiments, erythrosin B (Fisher; 0.04% in phosphate-buffered saline (PBS); H. J. Phillips and J. E. Terryberry, Exp. Cell Res. 13:341-347, 1957) was diluted 1:1 in dissection medium to verify allantoic cell viability. Vascular Endothelial Growth Factor (R & D System,s Minneapolis, Minn.) was prepared according to the manufacturer's instructions and was added to culture medium containing 5% FCS in concentrations of 1-20 ng/ml.
To test that possibility, recombinant VEGF (1-10 ng/ml culture medium) was added to explants at the start of culture in 5% FCS.

Substance: VEGF
- formation / retention of vascular channels in explants (VEGF 1 ng/ml): devoid of such channels
- cell survival (cell retention) (VEGF 2-10 ng/ml in 5% FCS, untreated explants in FCS alone 36%): 78%
- formation / retention of vascular channels in explants (VEGF 2-10 ng/ml, added at start of culture): retention of Flk-1 containing vascular channels and overlying VCAM-1 positive cells
- formation / retention of vascular channels in explants (VEGF 2-10 ng/ml, added at start of culture, listed as Vascular Endothelial Growth Factor): formation of many vascular channels containing Flk-1 and Flt-1
- survival of angioblasts and morphogenesis into vessels (explants cultured in low serum): promoted their survival and morphogenesis into vessels
